Experimental data as given in patent US10822317B2, “Methods and compositions for wound healing” (QBiotics Limited, priority 2013, dated 2020).

Key:
[1] = tested on: wounds following necrosis and sloughing of spontaneous tumours; assay: Resolution of wounds after sloughing of spontaneous tumours treated by intratumoural injection, feline; type: in vivo
Experimental: Veterinary clinical data on speed of resolution of wounds that formed following necrosis and sloughing of spontaneous tumours that had been treated by intratumoural injection of Compound 1 (30% 1,2 propanediol formulation at either 0.5 or 1.0 mg/mL concentration) in twenty-four companion animals are summarised in Table 17.
Note that all wounds were managed as open wounds and no bandaging, dressings, lotions or concomitant medications were used in any of these cases.

[2] = tested on: human neonatal fibroblasts; assay: Scratch closure, human neonatal fibroblasts, Method 2; type: cell-based; details: 200 ng/mL
Experimental: The ability of early. passage neonatal foreskin fibroblasts (NFF) cultured in RPMI 1640-10% foetal calf serum to migrate across a scratch wound made in a confluent monolayer following treatment with purified compounds or plant extracts was determined using one or more of the following three methods.
Cells were seeded in 6 mm wells (96-well plates) or 16 mm (24-well plates), with 2 to 6 replicate wells/dilution, and treated as in Method 1. Immediately after treatment, the scratch edges were outlined on the underside of the well with a fine point felt pen. After fixing and staining, migration was assessed under the microscope with the aid of a graticule, scoring migration as 0, 25, 50, 75 or 100% (total closure) of the initial width. Accelerated wound closure was considered to be significant if mean quartile of replicates was […] that of untreated controls (p<0.05, t-test). In addition, “wound” areas were created by seeding cells in the presence of 3 mm stainless steel pins (96-well plate), or by inserting flat-edged Teflon rings. These devices were removed after overnight incubation of the NFF cells.

[3] = tested on: severe lacerated wound on the head; assay: Veterinary case study 10, lacerated head wound of a spectacled flying fox; type: in vivo, Pteropus conspicillatus
Experimental: (§1) Seven dogs (Canis lupus familiaris) and one tree kangaroo (Dendrolagus humholzii) with chronic, non-healing wounds that were unresponsive to current veterinary standards-of-care for these indications were treated with Compound 1 by independent veterinarians. A second tree kangaroo and a spectacled flying fox (Pteropus conspicillatus) with wounds unsuited for initial treatment with current standards-of-care were also treated with Compound 1. All cases were managed as open wounds without the use of dressings or other bandaging during the course of treatment with Compound 1 and the subsequent period of wound resolution. Unless stated in individual case studies, no concomitant medications were used over the course of treatments with Compound 1.
Case notes: • The patient presented as a 4 month old flying fox with a deep penetrating wound on the head […] caused by entanglement in barbed wire. • In the opinion of the treating veterinarian who had extensive experience in wildlife injuries (including flying foxes) normal standard of care treatments were likely to be highly problematic in causing the right eye to lose shape and not be able to close, either due to excessive scar tissue formation associated with surgery or the extent of granulation required if wound healing dressings were applied. • Compound 1 was applied to the wound in 3 applications of 0.1 mL of 5 mg/mL gel formulation over a 28 day period (Days 1, 10 and 28). […] A very healthy granulation bed was present.

[4] = tested on: chronic, non-healing wounds; assay: Veterinary case studies 1 to 7, non-healing wounds in dogs; type: in vivo, Canis lupus familiaris
Experimental: as §1
Case notes: • Frail patient with severe osteoarthritis, considered a high anaesthetic risk for any surgical intervention. • Patient had persistent infected cyst on the back proximal to the tail that had not responded to regular draining and injection of the cyst with antibiotics (gentamycin, enrofloxacin, norocillin) over a 5 month period. • Patient presented with the burst cyst and elevated temperature. The cyst was cleaned to remove dead skin and then flushed with saline and chlorhexidene.
The wound area was fully healed by 63 days after treatment. • The wound on leg also responded quickly with eschar present in localised areas. By 14 days the eschar had largely shed and healthy underlying granulation tissue was observed.
Case notes: • Patient presented with a non-healing laceration due to a hunting accident that had been present on the left ear for more than 6 weeks. • Three treatments, each of 0.1 mL of 5 mg/mL gel formulation of Compound 1, were applied to the affected area at 8 day intervals. No concomitant medications were used during the course of treatment of the patient with Compound 1. • By 41 days after the first treatment with Compound 1 the wound had fully closed.
Case notes: • The patient presented with non-healing (infected and inflamed) sore on upper part of left ear and was treated for 10 weeks with standard-of-care protocols involving regular application of (i) a topical dermatological formulation (Neotopic) combining antibacterial (neomycin sulphate), anti-inflammatory (hydrocortisone) and anti-pruritic (lignocaine) agents, and (b) a commercial suspension (Auracol) with anti-inflammatory (prednisolone), antifungal (miconazole nitrate) and antibacterial (polymixin B sulphate) components. Prior to these treatments the patient was on an on-going course of low dose oral corticosteroids (macrolone) for treatment of chronic canine atopic dermatitis syndrome. • After 10 weeks of the standard-of-care protocol there was no sign of wound resolution. • A single treatment of 3 mL of a 5 mg/mL gel formulation of Compound 1 was applied to the affected area and within 15 minutes of application of Compound 1 there was discernable reddening of the treated area. • From 4 days after treatment with Compound 1 the patient recommenced low dose daily corticosteroids (macrolone) for treatment of the severe atopic dermatitis.
Case notes: • The patient presented with two non-healing wounds at the tip and base of the right ear and a non-healing wound on the snout that owner had observed present for more than 4 weeks. Possible origin was infected spider or other insect bites. • Two treatments, each of 0.1 mL of 5 mg/mL gel formulation of Compound 1, were applied to both affected areas on the ears at a 5 day interval.

[5] = tested on: immortalised human keratinocyte cells (HaCaT); assay: Scratch repopulation and closure with HaCaT; type: cell-based; details: 48 hrs; 0.001, 0.01 and 0.1 μg/ml; p<0.01
[6] = Case 1, 76 days following the final treatment
[7] = Case 5, 152 days after the initial treatment
[8] = Case 6, 83 days after treatment

Q: With `CC=C(C)C(=O)OC1C(C)C2(O)C(C3OC3(CO)C(O)C3(O)C(=O)C(C)=CC32)C2C(C)(C)C12OC(=O)C(C)CC` (centres unmarked) [Compound 1, 12-tigloyl-13-(2-methylbutanoyl)-6,7-epoxy-4,5,9,12,13,20-hexahydroxy-1-tigliaen-3-one] as the compound, how does the “No. of cats: Tissue deficit at wound site, Minor” value ([1]; 5 to 10% tissue deficit across the original wound area) read?
A: Its value is 0.

Q: What about the “No. of cats: Tissue deficit at wound site, Nil or minimal” value ([1]; <5% tissue deficit across the original wound area) of the same compound?
A: The value was 3.

Q: What about the “No. of cats: Tissue deficit at wound site, Substantial” value ([1]; >10% tissue deficit across the original wound area) of the same compound?
A: Its value is 0.

Q: And the “Average days from tumour slough to wound closure” value ([1]; Feline, wound size class 0.25 to 12 cm^2, 3 cases)?
A: The value was 17 ± 10 days.

Q: What about the “No. of cats: Hair regrowth on wound area, Sparse” value ([1]; Hair covers <50% of original wound area) of the same compound?
A: Its value is 0.

Q: And the “No. of cats: Hair regrowth on wound area, Partial” value ([1]; Hair covers >50% of original wound area)?
A: Its value is 1.

Q: And the “No. of cats: Hair regrowth on wound area, Full” value ([1]; Hair covers >95% of original wound area)?
A: Its value is 2.

Q: What about the “No. of cats: Scarring & skin thickening, Minor” value ([1]; Localised scar covering <10% of original wound area) of the same compound?
A: The value was 0.

Q: And the “No. of cats: Scarring & skin thickening, Substantial” value ([1]; Scarring covering >10% of original wound area)?
A: Its value is 0.

Q: And the “No. of cats: Scarring & skin thickening, Nil or minimal” value ([1]; Scarring not obvious visually or by touch)?
A: The value was 3.

Q: And the “No. of cats: Change in hair colour, No” value ([1]; healed wound site)?
A: The value was 2.

Q: What about the “No. of cats: Change in hair colour, Yes” value ([1]; healed wound site) of the same compound?
A: The value was 1.

Q: And the “No. of cats: Skin pigmentation, Hyperpigmentation” value ([1]; healed wound site)?
A: The value was 0.

Q: What about the “No. of cats: Skin pigmentation, Hypopigmentation” value ([1]; healed wound site) of the same compound?
A: The value was 0.

Q: And the “No. of cats: Skin pigmentation, Normal” value ([1]; healed wound site)?
A: The value was 3.

Q: And the “No. of cats: Skin pigmentation, Patchy” value ([1]; healed wound site)?
A: The value was 0.

Q: What about the “% closure compared to control” value [2] of the same compound?
A: The value was 180%.

Q: And the wound status ([3]; Case 10, flying fox, head wound, 3 x 0.1 mL gel 5 mg/mL (Days 1, 10, 28), 14 days after the initial treatment)?
A: The wound status was “significant tissue infill and remodeling”.

Q: What about the wound status ([3]; Case 10, 55 days after the initial treatment) of the same compound?
A: The wound status was “good tissue infill over the entire area of the original wound”.

Q: And the eye function ([3]; Case 10, by 28 days)?
A: Its eye function is “capable of fully closing”.

Q: What about the wound status ([4]; Case 1, Bernese Mountain Dog, facial wound, gel 3 mg/mL x5, then 1 mL 0.5 mg/mL injected, 35 days following injection) of the same compound?
A: Its wound status is “infilled with healthy differentiating granulation tissue”.

Q: And the “hair regrowth, % of the original wound area” value [4, 6]?
A: Its value is “greater than 95%”.

Q: What about the wound outcome [4, 6] of the same compound?
A: Its wound outcome is “healed and was infilled with normal tissue minimal scarring”.

Q: What about the “wound area as % of the area of the original wound” value ([4]; Case 2, Boxer, burst infected cyst, 0.5 mL gel 3 mg/mL, 5 days post treatment) of the same compound?
A: Its value is “less than 30%”.

Q: And the “hair regrowth over the original wound area” value ([4]; Case 2, 30 days)?
A: The value was “greater than 70%”.

Q: What about the wound outcome ([4]; Case 2, 30 days) of the same compound?
A: Its wound outcome is “resolved with normal tissue”.

Q: What about the “wound size as % of original size” value ([4]; Case 3, Chow Chow, two bite wounds, 0.4 mL gel 3 mg/mL each, 15 days post treatment) of the same compound?
A: Its value is “less than 40%”.

Q: What about the wound outcome ([4]; Case 3, 46 days following treatment) of the same compound?
A: The wound outcome was “completely resolved with normal tissue, no scarring and complete hair regrowth”.

Q: What about the “time to complete wound closure, facial wound” value ([4]; Case 4, Boxer, single 0.4 mL gel 5 mg/mL) of the same compound?
A: Its value is at most 14 days.

Q: What about the “hair cover, leg wound” value ([4]; Case 4, 63 days after treatment) of the same compound?
A: The value was “greater than 95%”.

Q: And the “time to fully healed wound area, facial wound” value ([4]; Case 4, single 0.4 mL gel 5 mg/mL)?
A: Its value is at most 63 days.

Q: And the “wound outcome, leg wound” value ([4]; Case 4, single 0.6 mL gel 5 mg/mL, 63 days after treatment)?
A: The value was “completely closed”.

Q: What about the “time to full wound closure” value ([4]; Case 5, Bull Arab, ear laceration, 3 x 0.1 mL gel 5 mg/mL at 8 day intervals, after first treatment) of the same compound?
A: Its value is at most 41 days.

Q: What about the “hair coverage over the original wound site” value [4, 7] of the same compound?
A: The value was “greater than 80%”.

Q: What about the wound outcome [4, 7] of the same compound?
A: The wound outcome was “complete wound resolution, minimal scarring”.

Q: And the “time to discernable reddening of the treated area” value ([4]; Case 6, Boxer, ear wound, single 3 mL gel 5 mg/mL)?
A: Its value is at most 15 min.

Q: What about the wound status ([4]; Case 6, 17 days after treatment) of the same compound?
A: Its wound status is “no sign of infection or inflammation”.

Q: And the “hair regrowth, % of the original wound area” value [4, 8]?
A: The value was “more than 90%”.

Q: What about the wound outcome [4, 8] of the same compound?
A: The wound outcome was “complete wound closure”.

Q: And the scarring ([4]; Case 6, 139 days after treatment)?
A: The scarring was “no evidence of scarring”.

Q: What about the “wound status, ear wounds” value ([4]; Case 7, Jack Russell Terrier, 2 x 0.1 mL gel 5 mg/mL, 13 days after the first treatment) of the same compound?
A: The value was “contracted significantly and had formed eschars”.

Q: What about the “time to full wound closure, ear wounds” value ([4]; Case 7, 2 x 0.1 mL gel 5 mg/mL) of the same compound?
A: The value was at most 29 days.

Q: What about the “wound outcome, snout wound” value ([4]; Case 7, single 0.1 mL gel 5 mg/mL, 16 days after treatment) of the same compound?
A: Its value is “fully resolved”.

Q: And the “rate of scratch closure compared to the control treatment” value [5]?
A: Its value is “significantly increased”.
